Experimental data as given in patent publication US7247734B2 (Vernalis (Cambridge) Limited, priority 2001, dated 2007).

Key:
[1] = test system: HT29 human colon tumour cells; test: 96 h growth inhibition assay (SRB), HT29; type: cell-based; settings: HT29, 96 h
Protocol: (§1) The growth inhibition assay employed was based on that described previously (Kelland et al., 1993). HCT116 and HT29 human colon tumour cells (American Tissue Culture Collection) were seeded into 96-well tissue culture plates (approximately 1600–2000 cells per well) and allowed to attach for 36 hours. Eight wells were treated with a single concentration from a range of compound concentrations and incubated for 96 hours. Cells were fixed using ice cold 10% trichloroacetic acid (TCA). Plates were then washed five times with water, air dried, and stained with 0.4% sulphorhodamine B (SRB) in 1% acetic acid for 10 minutes. The SRB stain was solubilised in 10 mM Tris-HCl and the absorbance measured at 540 nm using a Titertek Multiscan MCC/340 MKII plate reader (Flow Laboratories, IEC, Basingstoke, N.H.). The absorbance values correspond to total protein content and are used as a measure of cell growth.

[2] = test system: HCT116 human colon tumour cells; test: 96 h growth inhibition assay (SRB), HCT116; type: cell-based; settings: HCT116, 96 h
Protocol: as §1

[3] = test system: HSP70 and RAF-1 expression in A2780 human ovarian cancer cells; test: Western blotting of HSP70 and RAF-1 in A2780 cells; type: cell-based; settings: 60 nM (5×IC50), various times
Protocol: (§2) The cellular effects of HSP90 inhibitors can be measured using a number of molecular markers. As already mentioned, HSP90 inhibition leads to the depletion of several important cellular signalling proteins. […] Depletion is normally observed by 6 h, with maximum depletion occurring at 24 h. As well as RAF-1, depletion of several other HSP90 client proteins can be measured by immunoblotting e.g., CDK4, ERBB2. However, it is important to note that some of these proteins are cell line specific e.g., ERBB2 is expressed mainly in breast, thyroid, kidney and some ovarian tumour cell lines. Another very important marker of HSP90 inhibition is heat shock protein 70 (HSP70). A HSF-1 (heatshock factor 1) dependent increase in HSP70 levels has been reported by us and other groups (see, e.g., Whitesell et al., 1994; Clarke et al., 2000) and this effect can serve as a positive indicator of HSP90 inhibitor action. The immunoblotting method described is based on standard techniques but is described in detail for ease of reference.
Prepare as required and store at −20° C. • (4) Bicinchoninic acid (BCA) protein assay reagents (PerBio Science UK, Ltd., Chester, UK). • (5) Casein blocking buffer (0.5% casein, 0.02% thimerosal, in PBS). […]
(§3) Comments • (1) The protein bands are normally evaluated visually. […]

[4] = test system: HSP70 and client protein (CDK4) expression in HT29 cells; test: Western blotting of HSP70 and CDK4 in HT29 cells; type: cell-based, human; settings: 24 hours, various concentrations
Protocol: as §2
Prepare as required and store at −20° C. • (4) Bicinchoninic acid (BCA) protein assay reagents (PerBio Science UK, Ltd., Chester, UK). • (5) Casein blocking buffer (0.5% casein, 0.02% thimerosal, in PBS). Store at 4° C. for up to 2 weeks. • (6) Wash buffer (phosphate buffered saline, PBS) containing 0.05% Tween 20). • (7) Tris-glycine gradient polyacrylamide precast gels (4–20%) (1 mm thick) (Novex, InVitrogen, Groningen, NL). • (8) Nitro-cellulose membrane (0.2 μm pore size) (InVitrogen, Groningen, NL). • (9) Ponceau Red stain (2% w/v in 30% TCA/30% […], Sigma Aldrich Ltd., Pool, UK). • (10) Enhanced chemiluminescence (SuperSignal) reagents (PerBio Science UK, Ltd., Chester, UK). • (11) Photographic film (Hyperfilm ECL, Amersham Pharmacia Biotech, Little Chalfont, Bucks, UK). Method
The following protocol was used: • (1) Lyse cells (approx 4×10^6) in 100 μl lysis buffer for 30 minutes on ice. When adding the lysis buffer, shear cells by pipetting up and down using a Gilson P200 pipette. • (2) Spin lysates for 10 min at 13,000 rpm at 4° C., retrieve supernatant and store at −70° C. • (3) Determine protein concentration using BCA protein assay reagents. • (4) Load samples of cell lysates (50 μg protein/lane) onto gel and separate proteins by SDS-polyacrylamide gel electrophoresis (SDS-PAGE) using a 4–20% Tris-glycine gel. • (5) Transfer proteins to nitrocellulose membrane using optimum conditions for the equipment available. For example, 150 mA for 2 h using the Mighty Small transfer system (Hoeffer TE22 Mini Tank Transphor Unit, Amersham Pharmacia Biotech, Little Chalfont, Bucks, UK). […]
as §3

Structure (SMILES): C=CCNC1=C2C[C@@H](C)C[C@H](OC)[C@H](O)[C@@H](C)/C=C(\C)[C@H](OC(N)=O)[C@@H](OC)/C=C\C=C(/C)C(=O)NC(=CC1=O)C2=O [Example 17AAG, 17-allylamino-17-demethoxygeldanamycin, reference compound]
- IC50 [1]: 0.01 µM
- IC50 [2]: 0.1 µM
- HSP70 expression (immunoblot) [3]: induced
- RAF-1 expression (immunoblot) [3]: depleted
- CDK4 client protein expression (immunoblot) [4]: depleted
- HSP70 expression (immunoblot) [4]: induced
